Test results as given in patent publication US8853227B2, “Methotrexate adjuvants to reduce toxicity and methods for using the same” (Tosk, Incorporated, priority 2008, dated 2014).

Molecular target: human small intestinal UPase enzyme (Homo sapiens (Human), UniProt Q16831)
Assay: UPase inhibition in human small intestinal tissue homogenate (HPLC of uracil)
Assay type: biochemical
Details: 5 mM uridine, 37° C., pH 7.3
Experimental: A range of TK-112690 doses were studied for the their ability to prevent metabolic breakdown of uridine through the in vitro inhibition of mouse and human small intestinal UPase enzyme. UPase activity was determined by HPLC analysis using UV detection of uracil concentration (UPase catabolizes uridine into uracil and ribose-1-phosphate). The UPase enzyme material was prepared from homogenized mouse and human being small intestinal tissue. TK-112690 was dissolved in water (50 mg/ml) and analyzed for UPase inhibition in aqueous solution containing 5 mM uridine, 0.01 M Tris, 0.01 M phosphate, 1 mM EDTA, and 1 mM DTT. Reactions were performed at 37° C. at pH of 7.3.
[…] inhibition of mouse and human UPase was determined from measurements of uracil determined in homogenates by reverse phase HPLC using UV detection. […]
The aim of this study was to evaluate TK-112690 in vivo as an inhibitor of uridine phosphorylase (UPase) enzyme activity. […] Detection of UPase activity was determined by HPLC analysis using UV detection of uracil concentration (UPase catabolizes uridine into uracil and ribose-1-phosphate).
The UPase enzyme material was prepared from homogenized mouse and human being small intestinal tissue. TK-112690 was dissolved in water (50 mg/ml) and analyzed for UPase inhibition in aqueous solution containing 5 mM uridine, 0.01 M Tris, 0.01 M phosphate, 1 mM EDTA, and 1 mM DTT. […]

Chain of human small intestinal UPase enzyme (Q16831 whole entry): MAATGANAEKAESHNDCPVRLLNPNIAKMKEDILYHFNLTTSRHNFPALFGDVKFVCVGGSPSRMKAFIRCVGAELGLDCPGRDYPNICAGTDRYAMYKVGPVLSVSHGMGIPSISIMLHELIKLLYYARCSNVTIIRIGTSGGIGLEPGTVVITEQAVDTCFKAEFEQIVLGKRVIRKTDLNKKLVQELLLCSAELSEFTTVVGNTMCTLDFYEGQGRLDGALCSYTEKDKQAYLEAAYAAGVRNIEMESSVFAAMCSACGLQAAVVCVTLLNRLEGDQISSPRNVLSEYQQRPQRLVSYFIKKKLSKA

Cc1cn2c(nc1=O)O[C@H]1[C@H](O)[C@@H](CO)O[C@H]12 [TK-112690, 2,2′-anhydro-5-methyluridine]
IC50: 20 µM
